Reference: ChEMBL document CHEMBL6083285 (J Med Chem, 2024)
Values after ≈ are worked out from the molar mass of the structure shown.

Legend:
[1] = Inhibition of NLRP3 inflammasome activation in LPS-stimulated human whole blood assessed as reduction in IL-1beta release preincubated for 3 hrs followed by nigericin addition and measured after 1 hrs by Alphalisa method; type: tissue-based
[2] = Inhibition of NLRP3 inflammasome activation mediated pyroptosis in LPS-stimulated human THP-1 cells preincubated for 3 hrs followed by nigericin addition and measured after 1 hrs by resazurin dye based assay; type: cell-based
[3] = Metabolic stability in pooled human liver microsomes assessed as intrinsic clearance at 1 uM measured upto 45 mins in presence of NADPH by UPLC-MS/MS analysis; type: ADME, Microsome; details: read-out: CLH
[4] = Metabolic stability in pooled rat liver microsomes assessed as intrinsic clearance at 1 uM measured upto 45 mins in presence of NADPH by UPLC-MS/MS analysis; type: ADME, Microsome; details: read-out: CLH
[5] = Protein binding in human plasma assessed as unbound fraction at 5 uM incubated for 4 hrs by UPLC-MS analysis; type: ADME, cell-free
MDR1 [6] = test: Efflux ratio of permeability in MDCKII-MDR1 cells at 5 uM incubated for 2 hrs by LC-MS/MS analysis; type: ADME, cell-based, Canis lupus familiaris; details: dog, MDCK-MDR1
[7] = Lipophilicity, logD of compound at pH 7.4; type: physicochemical; details: buffer
MDR1 [8] = test: Permeability in MDCKII-MDR1 cells at 5 uM incubated for 2 hrs by LC-MS/MS analysis; type: ADME, cell-based, Canis lupus familiaris; details: dog, MDCK-MDR1, read-out: permeability
BCRP [9] = test: Permeability in MDCK-II-BCRP cells at 5 uM incubated for 2 hrs by LC-MS/MS analysis; type: ADME, cell-based, Canis lupus familiaris; details: dog, read-out: permeability
[10] = Metabolic stability in human hepatocytes assessed as intrinsic clearance measured per 10^6 cells at 100 uM incubated upto 60 mins by UPLC-MS/MS analysis; type: ADME, cell-based, Hepatocyte; details: read-out: CLH
MDR1 [11] = test: Efflux ratio of permeability across apical to basolateral side in pig LLC-PK1 cells transfected with MDR1; type: ADME, cell-based, Sus scrofa
[12] = Protein binding in rat plasma assessed as unbound fraction at 5 uM incubated for 4 hrs by UPLC-MS analysis; type: ADME, cell-free
[13] = Protein binding in mouse plasma assessed as unbound fraction at 5 uM incubated for 4 hrs by UPLC-MS analysis; type: ADME, cell-free
BCRP [14] = test: Efflux ratio of permeability in MDCK-II-BCRP cells at 5 uM incubated for 2 hrs by LC-MS/MS analysis; type: ADME, cell-based, Canis lupus familiaris; details: dog
[15] = Half-life in male Sprague-Dawley rat at 1 mg/kg, iv measured after 24 hrs by LC-MS analysis; type: ADME, organism-based; details: in vivo
MDR1 [16] = test: Permeability across apical to basolateral side in pig LLC-PK1 cells transfected with MDR1; type: ADME, cell-based, Sus scrofa; details: read-out: permeability
[17] = Volume of distribution at steady state in male Sprague-Dawley rat at 1 mg/kg, iv measured after 24 hrs by LC-MS analysis; type: ADME, organism-based; details: in vivo, read-out: Vdss
[18] = Metabolic stability in rat hepatocytes assessed as intrinsic clearance measured per 10^6 cells at 100 uM incubated upto 60 mins by UPLC-MS/MS analysis; type: ADME, cell-based, Hepatocyte; details: read-out: CLH
[19] = Clearance in male Sprague-Dawley rat at 1 mg/kg, iv measured after 24 hrs by LC-MS analysis; type: ADME, organism-based; details: in vivo
[20] = AUC (0 to infinity) in male Sprague-Dawley rat at 1 mg/kg, iv measured after 24 hrs by LC-MS analysis; type: ADME, organism-based; details: in vivo
Homo sapiens = organism: Homo sapiens; test: Selectivity ratio of IC50 for inhibition of NLRP3 inflammasome activation in LPS-stimulated human whole blood assessed as reduction in IL-1beta release to IC50 for inhibition of NLRP3 inflammasome activation mediated pyroptosis in LPS-stimulated human THP-1 cells
[21] = Metabolic stability in pooled mouse liver microsomes assessed as intrinsic clearance at 1 uM measured upto 45 mins in presence of NADPH by UPLC-MS/MS analysis; type: ADME, Microsome; details: read-out: CLH
[22] = Metabolic stability in mouse hepatocytes assessed as intrinsic clearance measured per 10^6 cells at 100 uM incubated upto 60 mins by UPLC-MS/MS analysis; type: ADME, cell-based, Hepatocyte; details: read-out: CLH
[23] = Kinetic solubility of compound; type: physicochemical; details: read-out: Kinetic_solubility
[24] = Binding affinity to NanoLuc-tagged NLRP3 (unknown origin) expressed in HEK293 cells incubated for 2 hrs by NanoBRET assay; type: cell-based; details: Homo sapiens, HEK293, 2 h

Structure (SMILES)	IC50 [1] [nM]	IC50 [2] [nM]	further results
COc1cc(-c2ccc3c(c2NC(=O)NS(=O)(=O)c2cnn(C(C)C)n2)CCC3)ccn1	814	58	–
COc1cc(-c2ccc3c(c2NC(=O)NS(C)(=O)=O)CCC3)ccn1	–	1010	–
CC(C)c1cc(F)cc2c1CC(=O)NS(=O)(=O)c1cnn(c1)C(C)(CO)COc1cc-2ccn1 (centres undefined)	486	83	–
CC(C)c1cccc2c1CC(=O)NS(=O)(=O)c1ccn(n1)C(C)(C)COc1cc-2ccn1	–	1700	–
CC(C)c1cc(F)cc2c1CC(=O)NS(=O)(=O)c1cn(nc1F)C(C)(C)COc1cc-2ccn1	450	20	–
CC(C)c1cccc2c1CC(=O)NS(=O)(=O)c1cnn(n1)C(C)(C)COc1cc-2ccn1	–	1680	–
CCC1(C)COc2cc(ccn2)-c2cccc(C(C)C)c2CC(=O)NS(=O)(=O)c2cnn1c2 (centres undefined)	241	275	–
O=C1Nc2c(ccc3c2CCC3)-c2ccnc(c2)OCCCCn2ccc(n2)S(=O)(=O)N1	784	176	–
CC(C)c1cccc2c1CC(=O)NS(=O)(=O)c1cccc(c1)C(C)(C)COc1cc-2ccn1	–	1460	–
CC(C)c1cccc2c1CC(=O)NS(=O)(=O)c1cnn(c1)C1(CC1)COc1cc-2ccn1	421	567	–
CC(C)c1cccc2c1CC(=O)NS(=O)(=O)c1cn(cn1)C(C)(C)COc1cc-2ccn1	–	721	–
Cc1cc2c(c3c1-c1ccnc(c1)OCC(C)(C)n1cc(F)c(n1)S(=O)(=O)NC(=O)N3)CCC2	102	4	–
CC(C)c1cc(F)cc2c1CC(=O)NS(=O)(=O)c1cnn(c1)C1(COC1)COc1cc-2ccn1	326	84	–
CC1(C)COc2cc(ccn2)-c2ccc3c(c2NC(=O)NS(=O)(=O)c2nn1cc2F)CCC3	168	17	–
COc1cc(-c2ccc3c(c2NC(=O)NS(=O)(=O)c2nn(C(C)C)cc2F)CCC3)ccn1	230	8	–
CC(C)c1cccc2c1CC(=O)NS(=O)(=O)c1cnn(c1)C1(CCCC1)COc1cc-2ccn1	506	105	–
COc1cc(-c2ccc3c(c2NC(=O)NS(=O)(=O)c2cnn(C(C)C)c2)CCC3)ccn1	338	16	microsomal CLint at 1 µM [3]: 45 µL/min/mg
CC(C)c1cccc2c1CC(=O)NS(=O)(=O)c1cnn(c1)C(C)(C)COc1cc-2ccn1	420	166	–
CC1(C)COc2cc(ccn2)-c2ccc3c(c2NC(=O)NS(=O)(=O)c2ccn1n2)CCC3	270	86	–

Structure (SMILES)	IC50 [1] [nM]	IC50 [2] [nM]	further results
O=C1Nc2c(ccc3c2CCC3)-c2ccnc(c2)OCCCCCn2ccc(n2)S(=O)(=O)N1	1100	289	–
COc1cc(-c2cc(F)cc(C(C)C)c2CC(=O)NS(=O)(=O)c2cnn(C3CC3)c2)ccn1	–	533	microsomal CLint at 1 µM [4]: < 15.4 µL/min/mg; fraction unbound at 4 h, 5 µM [5]: 0.01; efflux ratio at 2 h, 5 µM (MDR1 [6]): 21; logD [7]: 0.9; Papp at 2 h, 5 µM (MDR1 [8]): 8.8 ×10⁻⁶ cm/s; Papp at 2 h, 5 µM (BCRP [9]): 5.3 ×10⁻⁶ cm/s; hepatocyte CLint at 100 µM [10]: < 8 µL/min/1e6 cells; efflux ratio (MDR1 [11]): 3.6; fraction unbound at 4 h, 5 µM [12]: 0.019; fraction unbound at 4 h, 5 µM [13]: 0.017; efflux ratio at 2 h, 5 µM (BCRP [14]): 38; half-life [15]: 16.4 h; Papp A→B (MDR1 [16]): 0.17 ×10⁻⁶ cm/s; Vd [17]: 13.3 L/kg; hepatocyte CLint at 100 µM [18]: < 8 µL/min/1e6 cells; clearance [19]: 11 mL/min/kg; AUC(0-inf) [20]: 1510 ng·h/mL
CC1(C)COc2cc(ccn2)-c2c(F)cc3c(c2NC(=O)NS(=O)(=O)c2nn1cc2F)CCC3	125	8	–
COc1cc(-c2ccc3c(c2NC(=O)NS(=O)(=O)c2cn(C(C)C)cn2)CCC3)ccn1	621	61	–
CC(C)n1ccc(S(=O)(=O)NC(=O)Nc2c(-c3ccnc(Oc4ccccc4)c3)ccc3c2CCC3)n1	5940	59	logD [7]: 1.2; Ratio IC50 (Homo sapiens): 16
CC(C)c1cccc2c1CC(=O)NS(=O)(=O)c1nn(cc1F)C(C)(C)COc1cc-2ccn1	–	480	–
CC1(C)COc2cc(ccn2)-c2ccc3c(c2CC(=O)NS(=O)(=O)c2ccn1n2)CCC3	–	16000	–
O=C1Nc2c(ccc3c2CCC3)-c2ccnc(c2)OCCn2ccc(n2)S(=O)(=O)N1	119	63	–
O=C1Nc2c(ccc3c2CCC3)-c2ccnc(c2)OCCCn2ccc(n2)S(=O)(=O)N1	987	571	–
CC(C)c1cc(F)cc2c1CC(=O)NS(=O)(=O)c1cnn(c1)C(C)(C)COc1cc-2ccn1	351	76	microsomal CLint at 1 µM [4]: < 15.4 µL/min/mg; microsomal CLint at 1 µM [21]: 35 µL/min/mg; fraction unbound at 4 h, 5 µM [5]: 0.047; efflux ratio at 2 h, 5 µM (MDR1 [6]): 18; logD [7]: 1.5; Papp at 2 h, 5 µM (MDR1 [8]): 10.4 ×10⁻⁶ cm/s; Papp at 2 h, 5 µM (BCRP [9]): 10.9 ×10⁻⁶ cm/s; hepatocyte CLint at 100 µM [10]: < 8 µL/min/1e6 cells; efflux ratio (MDR1 [11]): 2.9; fraction unbound at 4 h, 5 µM [12]: 0.036; fraction unbound at 4 h, 5 µM [13]: 0.086; efflux ratio at 2 h, 5 µM (BCRP [14]): 6; half-life [15]: 1.5 h; Papp A→B (MDR1 [16]): 0.39 ×10⁻⁶ cm/s; hepatocyte CLint at 100 µM [22]: 21 µL/min/1e6 cells; Vd [17]: 0.4 L/kg; hepatocyte CLint at 100 µM [18]: < 8 µL/min/1e6 cells; clearance [19]: 3.5 mL/min/kg; solubility kinetic [23]: 16.5 µg/mL (≈ 34.9 µM); AUC(0-inf) [20]: 4900 ng·h/mL
CC(C)n1ccc(S(=O)(=O)NC(=O)Nc2c(-c3ccnc(OC4CCN(C)C4)c3)ccc3c2CCC3)n1 (centres undefined)	–	800	logD [7]: -0.5
COc1cc(-c2ccc3c(c2NC(=O)NS(=O)(=O)c2ccnc(C(C)C)c2)CCC3)ccn1	1600	23	–
CC(C)(O)c1coc(S(=O)(=O)NC(=O)Nc2c3c(cc4c2CCC4)CCC3)c1	770	64	IC50 [24]: 990 nM
CC(C)n1ccc(S(=O)(=O)NC(=O)Nc2c(-c3ccnc(OC4CCN(C)CC4)c3)ccc3c2CCC3)n1	440	46	logD [7]: -0.02
CC(C)c1cccc2c1CC(=O)NS(=O)(=O)c1cnn(c1)C1(CCC1)COc1cc-2ccn1	204	52	–
O=C1Nc2c(ccc3c2CCC3)-c2ccnc(c2)OCCCCCCn2ccc(n2)S(=O)(=O)N1	1570	215	–
COc1cc(-c2ccc3c(c2NC(=O)NS(=O)(=O)c2ccn(C(C)C)n2)CCC3)ccn1	412	51	logD [7]: 0.09; microsomal CLint at 1 µM [3]: 12 µL/min/mg
CC(C)c1cccc2c1CC(=O)NS(=O)(=O)c1cnn(c1)C(C)(C1CC1)COc1cc-2ccn1 (centres undefined)	441	31	–
CC(C)n1ccc(S(=O)(=O)NC(=O)Nc2c(-c3ccnc(OC4CCOCC4)c3)ccc3c2CCC3)n1	1000	62	logD [7]: 0.35; Ratio IC50 (Homo sapiens): 16
